PubChem BioAssay AID1259407 (Chemical Carcinogenesis Research Information System (CCRIS), 2018)
Activity calls are given as the source filed them. How the calls were made is not given here.

System: CCRIS mutagenicity, Ames/micronucleus/aberration tests
Assay: CCRIS mutagenicity studies
[1] = Test System: AMES SALMONELLA TYPHIMURIUM, Strain/Indicator: TA98, Metabolic Activation: NONE, Method: STANDARD PLATE
[2] = Test System: AMES SALMONELLA TYPHIMURIUM, Strain/Indicator: TA100, Metabolic Activation: NONE, Method: STANDARD PLATE

In the case of `Nc1ccc(-c2ccc(N)cc2[N+](=O)[O-])cc1`, the mutagenic call (Test System: AMES SALMONELLA TYPHIMURIUM, Strain/Indicator: TA98(1,8-DNP6), Metabolic Activation: NONE, Method: STANDARD PLATE) was “active; positive”, the mutagenic call (Test System: AMES SALMONELLA TYPHIMURIUM, Strain/Indicator: TA98(1,8-DNP6), Metabolic Activation: S-9, Method: STANDARD PLATE) was “active; positive” and the mutagenic call [1] was “active; positive”. The mutagenic call (Test System: AMES SALMONELLA TYPHIMURIUM, Strain/Indicator: TA98, Metabolic Activation: S-9, Method: STANDARD PLATE) was “active; positive”, the mutagenic call [2] was “inactive; negative” and the mutagenic call (Test System: AMES SALMONELLA TYPHIMURIUM, Strain/Indicator: TA100, Metabolic Activation: S-9, Method: STANDARD PLATE) was “active; positive”.
For `Oc1ccc2c(ccc3[nH]c4ccc5ccccc5c4c32)c1`, the mutagenic call [1] was “inactive; negative”, the mutagenic call (Test System: AMES SALMONELLA TYPHIMURIUM, Strain/Indicator: TA98, Metabolic Activation: RAT, LIVER, S-9, 3-METHYLCHOLANTHRENE, Method: STANDARD PLATE) was “active; positive” and the mutagenic call [2] was “inactive; negative”. The mutagenic call (Test System: AMES SALMONELLA TYPHIMURIUM, Strain/Indicator: TA100, Metabolic Activation: RAT, LIVER, S-9, 3-METHYLCHOLANTHRENE, Method: STANDARD PLATE) was “active; positive”, the mutagenic call (Test System: AMES SALMONELLA TYPHIMURIUM, Strain/Indicator: TM677, Metabolic Activation: NONE, Method: PREINCUBATION) was “inactive; negative” and the mutagenic call (Test System: AMES SALMONELLA TYPHIMURIUM, Strain/Indicator: TM677, Metabolic Activation: RAT, LIVER, S-9, 3-METHYLCHOLANTHRENE (1%), Method: PREINCUBATION) was “active; positive”. For the same compound, the mutagenic call (Test System: AMES SALMONELLA TYPHIMURIUM, Strain/Indicator: TM677, Metabolic Activation: RAT, LIVER, S-9, 3-METHYLCHOLANTHRENE (10%), Method: PREINCUBATION) was “active; positive” and the mutagenic call (Test System: AMES SALMONELLA TYPHIMURIUM, Strain/Indicator: TM677, Metabolic Activation: RAT, LIVER, S-9, AROCLOR 1254 (10%), Method: PREINCUBATION) was “active; positive”.
For `CNC(=O)CNC(=O)C=[N+]=[N-]`, the mutagenic call (Test System: UDS RODENT CELLS, Strain/Indicator: THY INCORP (NON-S-PHASE), Metabolic Activation: NONE, Method: AUTORADIOGRAPHY) was “active; positive”.
For `CCN(C(C)=O)c1ccc2c(c1)Cc1ccccc1-2`, the mutagenic call (Test System: AMES SALMONELLA TYPHIMURIUM, Strain/Indicator: TA98, Metabolic Activation: RAT, LIVER, S-9, AROCLOR 1254, Method: STANDARD PLATE) was “active; positive”.
`CC(=O)C(C)O` (stereo not given) was tested, and the mutagenic call (Test System: AMES SALMONELLA TYPHIMURIUM, Strain/Indicator: TA98, Metabolic Activation: NONE, Method: PREINCUBATION) was “inactive; negative”, the mutagenic call (Test System: AMES SALMONELLA TYPHIMURIUM, Strain/Indicator: TA98, Metabolic Activation: RAT, LIVER, S-9, AROCLOR 1254, Method: PREINCUBATION) was “inactive; negative” and the mutagenic call (Test System: AMES SALMONELLA TYPHIMURIUM, Strain/Indicator: TA100, Metabolic Activation: NONE, Method: PREINCUBATION) was “inactive; negative”. The mutagenic call (Test System: AMES SALMONELLA TYPHIMURIUM, Strain/Indicator: TA100, Metabolic Activation: RAT, LIVER, S-9, AROCLOR 1254, Method: PREINCUBATION) was “inactive; negative”, the mutagenic call (Test System: AMES SALMONELLA TYPHIMURIUM, Strain/Indicator: TA102, Metabolic Activation: NONE, Method: PREINCUBATION) was “inactive; negative” and the mutagenic call (Test System: AMES SALMONELLA TYPHIMURIUM, Strain/Indicator: TA102, Metabolic Activation: RAT, LIVER, S-9, AROCLOR 1254, Method: PREINCUBATION) was “inactive; negative”. The mutagenic call (Test System: AMES SALMONELLA TYPHIMURIUM, Strain/Indicator: TA1535, Metabolic Activation: NONE, Method: PREINCUBATION) was “inactive; negative”, the mutagenic call (Test System: AMES SALMONELLA TYPHIMURIUM, Strain/Indicator: TA1537, Metabolic Activation: NONE, Method: PREINCUBATION) was “inactive; negative” and the mutagenic call (Test System: AMES SALMONELLA TYPHIMURIUM, Strain/Indicator: TA1538, Metabolic Activation: NONE, Method: PREINCUBATION) was “inactive; negative”. The mutagenic call (Test System: E. COLI, Strain/Indicator: WP2 UVRA, Metabolic Activation: NONE, Method: PREINCUBATION) was “inactive; negative”.
`Oc1cccc2c1[nH]c1ccccc12` was tested, and the mutagenic call (Test System: CHINESE HAMSTER OVARY, Strain/Indicator: CHO-K1-BH4 (HGPRT)/6-THIOGUANINE, Metabolic Activation: RAT, LIVER, S-9, AROCLOR (4%)) was “active; positive”.
With `Cc1ncc(CNC(=O)N(CCCl)N=O)c(N)n1` the mutagenic call [1] was “active; positive”, the mutagenic call [2] was “active; positive” and the mutagenic call (Test System: E. COLI, Strain/Indicator: WP2 (HCR), Metabolic Activation: NONE, Method: STANDARD PLATE) was “active; positive”.
